Consider 25 compounds from article PMC8380238, “Structure-based virtual screening of CYP1A1 inhibitors: towards rapid tier-one assessment of potential developmental toxicants” (Archives of Toxicology, 2021).

Series [1] concerns the target T1, human recombinant CYP1A1 (rCYP1A1) (Homo sapiens, UniProt P04798).
T1 sequence (P04798 1-512): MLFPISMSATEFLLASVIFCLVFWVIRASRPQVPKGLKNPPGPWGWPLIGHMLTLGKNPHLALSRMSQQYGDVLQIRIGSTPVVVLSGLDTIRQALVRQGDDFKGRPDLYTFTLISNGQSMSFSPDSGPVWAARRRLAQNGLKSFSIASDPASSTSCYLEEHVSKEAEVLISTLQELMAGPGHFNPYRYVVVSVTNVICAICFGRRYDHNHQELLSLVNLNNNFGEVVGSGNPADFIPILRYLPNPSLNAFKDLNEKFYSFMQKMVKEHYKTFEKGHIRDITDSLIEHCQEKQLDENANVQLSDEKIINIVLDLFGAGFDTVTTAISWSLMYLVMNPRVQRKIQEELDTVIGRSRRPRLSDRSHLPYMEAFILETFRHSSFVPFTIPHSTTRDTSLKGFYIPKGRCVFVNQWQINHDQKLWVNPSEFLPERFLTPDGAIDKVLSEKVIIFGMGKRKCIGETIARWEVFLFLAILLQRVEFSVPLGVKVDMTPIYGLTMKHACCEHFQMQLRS
Briefly: CYP1A1 activity assay: inhibition of CEC metabolism (IC50).

Series [2] has as its target T1, human recombinant CYP1A1 (rCYP1A1). As to the kind of experiment: CYP1A1 activity assay repeated at six CEC concentrations (Ki, α, mode of inhibition).
The target is the same in series [3].
Series [4] concerns human CYP1A1. The note with it: cited from earlier work.
Series [5] deals with T1, human recombinant CYP1A1 (rCYP1A1). The note with it: recombinant enzyme.
Series [6] relates to CYP1A1. The note with it: cited from earlier work.
Series [7] relates to CYP1A1. The note with it: cited from earlier work. The source holds these as a separate data set.
In series [8] the test system is human CYP1A1. More on the design: unit not given beside the values. The note with it: cited from earlier work.
Setting [9] is: CYP1A1 IC50 (range of colour key, Fig. 5a).
[10] abbreviates: CYP1A1 Ki (range of colour key, Fig. 5b).

Read-outs that look alike come from different tables or passages of the source.

In the case of `CC(C)(C#N)c1cc(Cn2cncn2)cc(C(C)(C)C#N)c1` [Anastrozole, reference compound], the results for the IC50 in series [1] (setting [9]) and in series [1] (IC50) were 100 to 1000 µM and 190 µM, respectively.

As to `CC(O)(CS(=O)(=O)c1ccc(F)cc1)C(=O)Nc1ccc(C#N)c(C(F)(F)F)c1` (stereo not drawn) [Bicalutamide, reference compound], the Ki in series [2] (setting [10]) is 1 to 10 µM; in series [2] (Ki), 6.6 µM. Also, the IC50 in series [1] (setting [9]) is 10 to 100 µM; in series [1] (IC50) it was 14 µM. For the same compound, in series [3], the “MOI (mode of inhibition)” value is on record as “Mixed”.

On to `CC(C)(c1ccc(O)cc1)c1ccc(O)cc1` [Bisphenol A], for which the “α (degree to which the binding of inhibitor changes the affinity of the enzyme for substrate)” value in series [2] turned out to be 9.1. Further, the Ki in series [2] (Ki) was 0.53 µM. Also, the IC50 in series [1] (setting [9]) was 1 to 10 µM; in series [1] (IC50) it was 2.4 µM. In series [3], the “MOI (mode of inhibition)” value is listed as “Competitive”.

With `O=c1ccc2nc3ccc(OCc4ccccc4)cc3oc-2c1` [BzRes, resorufin benzyl ether], the “activity of human CYP1A1 on the fluorometric substrate” value in the series on human CYP1A1 [4] (ref Stresser et al. [2002]) is 0.457 pmol/min/pmol CYP1A1.

For the compound `CCOc1ccc2cc(C#N)c(=O)oc2c1` [CEC, 3-cyano-7-ethoxycoumarin], in the series with human CYP1A1 [4], the “activity of human CYP1A1 on the fluorometric substrate” value is reported as 40.2 pmol/min/pmol CYP1A1.

For the compound `O=P1(N(CCCl)CCCl)NCCCO1` (stereo not drawn) [Cyclophosphamide, reference compound], the IC50 is ≥ 1000 µM in series [1] (setting [9]) and “∞” in series [5].

Turning to `CC(=O)O[C@]1(C(C)=O)CC[C@H]2[C@@H]3C=C(Cl)C4=CC(=O)[C@@H]5C[C@@H]5[C@]4(C)[C@H]3CC[C@@]21C` [Cyproterone acetate, reference compound], the “α (degree to which the binding of inhibitor changes the affinity of the enzyme for substrate)” value in series [2] was determined as 7. The Ki in series [2] (CYP1A1 Ki (range of colour key, Fig. 5b), range assigned by colour of the point) was 1 to 10 µM; in series [2] (Ki, CEC 1.56-50.0 µM) it was 8.8 µM. Also, the results for the IC50 in series [1] (setting [9]) and in series [1] (IC50) were 1 to 10 µM and 9.9 µM, respectively. For the same compound, the “MOI (mode of inhibition)” value in series [3] is “Competitive”.

For the compound `CCCCc1oc2ccccc2c1C(=O)c1cc(I)c(OCCNCC)c(I)c1` [DEA, desethylamiodarone], in the series on CYP1A1 [6], the Ki is 1.5 µM and the α was 5.7.

Consider `C[C@]12CC[C@H](O)CC1=CC[C@@H]1[C@@H]2CC[C@]2(C)C(=O)CC[C@@H]12` [DHEA, dehydroepiandrosterone], for which the IC50 is 100 to 1000 µM in series [1] (setting [9]) and 130 µM in series [1] (IC50).

Take `CCCCOC(=O)c1ccccc1C(=O)OCCCC` [Dibutyl phthalate]: the “α (degree to which the binding of inhibitor changes the affinity of the enzyme for substrate)” value in series [2] is given as 13. Moreover, the Ki in series [2] (setting [10]) was 1 to 10 µM; in series [2] (Ki) it was 1.6 µM. Moreover, the values for the concentration for half-maximal inhibition (IC50) in series [1] (setting [9]) and in series [1] (IC50) were 10 to 100 µM and 10 µM, respectively. Also, in series [3], the “MOI (mode of inhibition)” value is reported as “Competitive”.

For the compound `CCOC(=O)c1ccccc1C(=O)OCC` [Diethyl phthalate], the values for the inhibition constant (Ki) in series [2] (setting [10]) and in series [2] (Ki) were 10 to 15 µM and 10 µM, respectively. Moreover, the IC50 in series [1] (setting [9]) is 10 to 100 µM; in series [1] (IC50), 38 µM. Besides, in series [3], the “MOI (mode of inhibition)” value is listed as “Competitive”.

`C[C@]12CC[C@@H]3c4ccc(O)cc4CC[C@H]3[C@@H]1[C@@H](O)[C@@H](O)[C@@H]2O` [Estetrol]: the 50% inhibitory concentration (IC50) in series [1] (CYP1A1 IC50 (range of colour key, Fig. 5a), 5 µM CEC, range assigned by colour of the point) was 100 to 1000 µM; in series [1] (IC50, 5 µM CEC, maximum tested concentration 200 µM (ketoconazole 20 µM), ∞ = the best fitted model was the constant model), > 200 µM.

For the compound `C[C@]12CC[C@@H]3c4ccc(O)cc4CC[C@H]3[C@@H]1CC[C@@H]2O` [Estradiol, reference compound], the CYP1A1 substrate category entry with CYP1A1 [7] is “strong”. Also, the “α (degree to which the binding of inhibitor changes the affinity of the enzyme for substrate)” value in series [2] was found to be 4.3. Also, the inhibition constant Ki is 10 to 15 µM in series [2] (setting [10]) and 13 µM in series [2] (Ki). Further, the IC50 in series [1] (setting [9]) was 10 to 100 µM; in series [1] (IC50), 43 µM. Moreover, in series [3], the “MOI (mode of inhibition)” value is recorded as “Competitive”.

Regarding `C[C@]12CC[C@@H]3c4ccc(O)cc4CC[C@H]3[C@@H]1C[C@@H](O)[C@@H]2O` [Estriol], the 50% inhibitory concentration (IC50) was ≥ 1000 µM in series [1] (setting [9]) and “∞” in series [5].

As for `CC(=O)N1CCN(c2ccc(OCC3COC(Cn4ccnc4)(c4ccc(Cl)cc4Cl)O3)cc2)CC1` (stereo not drawn) [Ketoconazole, reference compound], the “α (degree to which the binding of inhibitor changes the affinity of the enzyme for substrate)” value in series [2] was 0.68. In addition, the Ki in series [2] (Ki) stood at 0.11 µM. Also, the IC50 in series [1] (IC50) is 0.099 µM. In addition, in series [3], the “MOI (mode of inhibition)” value is “Noncompetitive”.

Take `COc1ccc2[nH]cc(CCNC(C)=O)c2c1` [Melatonin]: the CYP1A1 substrate category entry in the series with CYP1A1 [7] is recorded as “strong”.

As for `CC(=O)[C@H]1CC[C@H]2[C@@H]3CCC4=CC(=O)CC[C@]4(C)[C@H]3CC[C@]12C` [Progesterone, reference compound], the CYP1A1 substrate category entry with CYP1A1 [7] was “weak”. The “α (degree to which the binding of inhibitor changes the affinity of the enzyme for substrate)” value in series [2] is 4.3. The inhibition constant (Ki) in series [2] (setting [10]) was 15 to 20 µM; in series [2] (Ki), 20 µM. Moreover, the IC50 in series [1] (setting [9]) was 10 to 100 µM; in series [1] (IC50) it was 41 µM. Moreover, the “MOI (mode of inhibition)” value in series [3] is “Competitive”.

In the case of `CCCOC(=O)c1ccc(O)cc1` [Propyl paraben], the “α (degree to which the binding of inhibitor changes the affinity of the enzyme for substrate)” value in series [2] was found to be 6.2. For the same compound, the Ki in series [2] (setting [10]) was 15 to 20 µM; in series [2] (Ki), 17 µM. The IC50 was 10 to 100 µM in series [1] (setting [9]) and 39 µM in series [1] (IC50). The “MOI (mode of inhibition)” value in series [3] is reported as “Competitive”.

In the case of `C[C@]12CC[C@H]3[C@@H](CCC4=CC(=O)CC[C@@]43C)[C@@H]1CC[C@@H]2O` [Testosterone], the CYP1A1 substrate category entry in the series on CYP1A1 [7] was “weak”.

For the compound `CC1(C)CCC(=Cc2ccc(Cl)cc2)C1(O)Cn1cncn1` (stereo not drawn) [Triticonazole], the AC50 in the series with human CYP1A1 [8] is listed as -0.101.

As for `c1ccc(C(O[C@@H]2CCCN(CCc3ccc4c(c3)OCO4)C2)c2ccccc2)cc1` [Zamifenacin], the AC50 with human CYP1A1 [8] (NVS_ADME_hCYP1A1, values appear to be log10, ref ToxCast) was 0.759.

On to `C[C@H]1CCCC(=O)CCC/C=C/c2cc(O)cc(O)c2C(=O)O1` [Zearalenone], for which, in series [2], the “α (degree to which the binding of inhibitor changes the affinity of the enzyme for substrate)” value came to 3.5. Moreover, in series [2] (Ki), the Ki came out at 0.66 µM. Besides, the 50% inhibitory concentration (IC50) in series [1] (IC50) turned out to be 0.7 µM. Moreover, in series [3], the “MOI (mode of inhibition)” value is given as “Mixed”.

`CC1=C(/C=C/C(C)=C/C=C/C(C)=C/C(=O)O)C(C)(C)CCC1` [all-trans-Retinoic acid]: in the series with human CYP1A1 [8] (ToxCast NVS_ADME_hCYP1A1, NA = no AC50, ref ToxCast), the AC50 was 0.1194.

Regarding `C=CC(=C)CCC=C(C)C` [β-Myrcene], the “α (degree to which the binding of inhibitor changes the affinity of the enzyme for substrate)” value in series [2] stood at 3.5. Further, the Ki in series [2] (setting [10]) was 10 to 15 µM; in series [2] (Ki), 11 µM. The half-inhibitory concentration (IC50) in series [1] (setting [9]) was 10 to 100 µM; in series [1] (IC50) it was 52 µM. Besides, the “MOI (mode of inhibition)” value in series [3] is listed as “Mixed”.

In the case of Chlorpyrifos oxon, in the series with human CYP1A1 [8], the AC50 was 0.9288.
